Data set [1] concerns A549 Human Lung Carcinoma. Description: cytotoxicity, cell viability count after 96 h of treatment. In kind it is cell-based. Conditions: 20 nM, trypan blue. How it is done: (§1) After 96 hours of treatment, cells were counted for viability.
(§2) Materials and Equipment: Eagle's Minimum Essential Media (ATCC No. 30-2003); F-12K Media (ATCC No. 30-2008); Fetal Bovine Serum (ATCC No. 30-2020); Penicillin/Streptomycin (Thermo Fisher No. 15-140-122); Human Recombinant Insulin 0.01 mg/mL (Sigma No. 19278); Trypsin (ATCC No. 25-200-072); Phosphate Buffered Saline (Corning from Thermo Fisher No. 21040CM); Hemocytometer (Hausser from Fischer No. 02-671-6); Trypan blue (Gibco No. 15250061); p100 tissue culture dishes (Falcon-Corning No. 08-772E). Ixabepilone (Lot 3L7304N) was provided by R-Pharm US. […] Saline control was phosphate-buffered 150 mM NaCl solution.
(§3) Cells were rapidly thawed in a water bath at 37° C. and resuspended in appropriate media before being transferred to 60 mm or 100 mm tissue culture dishes. A549 cells were maintained in F12-K media, supplemented with 10% fetal bovine serum, and 1% penicillin/streptomycin. MCF7 cells were maintained in Eagle's Minimum Essential media, supplemented with 10% fetal bovine serum, 1% penicillin/streptomycin, and 0.01 mg/mL insulin. All cells were passaged at least three times before treatment. […] Saline was administered at the equivalent volume used for the ixabepilone treatment for each respective cell line. At 96 h, cells were trypsinized and harvested and counted with trypan blue on a hemocytometer.

In data set [2] the test system is MCF7 Human Breast Adenocarcinoma. Described as above. Conditions: 40 nM, trypan blue. The class given is cell-based. The method, then: as §1, §2, §3
The conditions of data set [3]: cited from earlier work.

The structures appear in SMILES notation.

The source of these data is US11478505B2, “Compositions of ixabepilone” (R-Pharm US Operating LLC, priority 2020, dated 2022).

Consider `C/C(=C\c1csc(C)n1)[C@@H]1C[C@@H]2O[C@]2(C)CCC[C@H](C)[C@H](O)[C@@H](C)C(=O)C(C)(C)[C@@H](O)CC(=O)N1` [ixabepilone, (1S,3S,7S,10R,11S,12S,16R)-7,11dihydroxy-8,8,10,12,16-pentamethyl-3-[(1E)-1-methyl-2-(2-methyl-4-thiazolyl)ethenyl]17-oxa-4-azabicyclo[14.1.0] heptadecane-5,9-dione], for which the “average cell viability count” value in data set [1] is listed as 106×10^4; in data set [2], 70×10^4. Moreover, the tolerability entry in data set [3] (doses of 0.1, 1.0 or 2.0 mg/kg, weekly IV, 5 doses) is “generally well tolerated”. Besides, in data set [3] (weekly intravenous dosing for one month (5 doses)), the “no observed adverse effect level (NOAEL)” value is 0.1 mg/kg.
